Experimental findings from patent US5162336A, “Tetrahydro-pyrido-indoles as cholecystokinin and gastrin antagonists” (Rhone-Poulenc Rorer Pharmaceuticals Inc., priority 1990, dated 1992) are described below.

Structures are written as SMILES.

The assay has as its target T1, Gastrin receptor (Cavia porcellus, UniProt H0VZC5).
T1 construct: The fundic mucosa is gently scraped off the submucosa; from tissue; host or cells: gastric glands from fundic mucosa of Hartley guinea pig
T1 sequence (H0VZC5 1-426): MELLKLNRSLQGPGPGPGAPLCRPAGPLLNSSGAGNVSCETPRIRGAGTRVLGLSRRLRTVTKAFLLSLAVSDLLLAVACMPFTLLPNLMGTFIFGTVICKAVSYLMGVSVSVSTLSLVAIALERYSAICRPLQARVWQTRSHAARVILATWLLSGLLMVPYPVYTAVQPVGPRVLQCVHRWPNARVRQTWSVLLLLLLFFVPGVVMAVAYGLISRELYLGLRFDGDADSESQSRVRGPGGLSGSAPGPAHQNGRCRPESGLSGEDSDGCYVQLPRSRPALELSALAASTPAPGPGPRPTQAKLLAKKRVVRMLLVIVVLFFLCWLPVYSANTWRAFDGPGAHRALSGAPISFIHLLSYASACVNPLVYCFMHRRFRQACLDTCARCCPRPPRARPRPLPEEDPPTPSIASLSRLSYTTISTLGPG
As to the kind of experiment: Gastrin receptor binding assay (displacement of 125I-(Leu-15)-Gastrin from guinea pig fundic glands). Also noted: species or system guinea pig (Hartley Strain). Conditions: guinea pig fundic mucosa glands, 25° C., 30 min, read-out: In vitro Binding Data IC50 Gastrin. As for the experimental part:
(a) Phosphate Buffered Saline (PBS): 8.743 g NaCl, 523 mg K2 HPO4 and 76.8 mg NaH2 PO4 is dissolved in 1.0 liter of deionized water and the pH of the solution is adjusted to 7.3 with 5N NaOH.
(b) Buffer A: While adding Basal Medium Eagle (BME) containing Earle's Salts, L-glutamine and 25 mM HEPES, 3 liters of deionized water is stirred, followed by the addition and dissolution of […] of sodium bicarbonate. The solution is then equilibrated with 95% O2 /5% CO2 gas followed by titration to a pH of 7.4 with NaOH.
(c) Buffer B: 18.75 mg of collagenase and […] of BSA is dissolved in 25 ml of Buffer A.
(d) Buffer C: 0.3 g of BSA is dissolved in 300 ml of Buffer A.
(e) 6.25 mg Bacitracin is dissolved in 25 ml of Buffer A.
(f) ^125 I-(Leu-15)-Gastrin: 100 microcurie dissolved in 2.0 ml of Buffer A to make 50 microcurie/ml.
(g) ^125 I-(15-methionine)-Human Gastrin: 50 microcurie/ml.
(h) (Leu 15)-Gastrin: 5.2 mg of (Leu-15)- Gastrin is dissolved in 10 ml of Buffer A. At the time of assay 1:10 dilution is made and 10 μl assay tube is used.
A guinea pig (Hartley Strain) weighing 150-200 grams, is sacrificed by CO2 asphyxiation and the stomach immediately excised, cut along the greater curvature, cleaned out and immediately immersed in a beaker containing cold PBS, pH 7.3, to insure thorough cleaning. The fundic mucosa is gently scraped off the submucosa and added to a preweighed 50 ml plastic centrifuge tube containing 30 ml of cold Buffer A. The weight of the plastic centrifuge tube containing the buffer is then subtracted from the combined weight of the mucosa and the buffer-containing tube to give the weight of the mucosa. The weight of the mucosa thus determined is recorded for later calculations.
The mucosa is then washed twice in Buffer A. After the final wash, the tissue is minced and is placed in a 100-ml glass beaker containing about 1.0 ml of Buffer A, and washed twice again by repeated centrifugation at 50×g for 5 minutes each and aspiration of supernatant. The washed tissue fragments are then added to a glass Erlenmeyer flask containing 25 ml of Buffer B and incubated in a Dubnoff shaking water bath at 37° C. for 30 minutes in a 95% O2 - 5% CO2 atmosphere. After the incubation, the digested tissue fragments in the Collegenase-buffer solution are triturated, filtered through a 200-micron nylon mesh and centrifuged at 50×g for 5 minutes. The supernatant is aspirated and discarded, the tissue washed 2× in Buffer C, resuspended in same buffer, incubated in a 37° C. water bath in an atmosphere of 95% O2 - 5% CO2 for 5 minutes, and centrifuged. The pelleted glands are suspended in Buffer D at a desired concentration of 2x10^5 glands/ml to use in the receptor binding assay.
Six minisorp tubes (16×100 mm) are serially marked and divided into two groups thus: tubes #1, #2, and #3 are marked "T" for "Totals" and tubes #4, #5, and #6 are marked "NS" for "Non-Specifics." Into each of the six tubes are added 220 μl of prepared glands in Buffer D; 20 μl of Buffer A in tubes #1, #2, and #3; 10 μl, in tubes #4, #5 and #6; (10μ of (Leu-15)-Gastrin (25 μM) in tubes #4, #5, and #6. The six tubes are then transferred immediately to a 25° C. water bath and challenged each with 10 μl ^125 I-(Leu-15)-Gastrin diluted as per calculation. The tubes are then covered with a gas hood connected to a 95% O2 - 5% CO2 gas source and mechanically agitated in a shaker for 30 minutes.
At the end of the incubation period, the assay mixtures are each filtered through a Whatman glass fiber filter B on a Brandel tissue harvester and washed twice with Buffer A. The filters are pre-soaked in Buffer C before use. The filter strips are removed after the final wash and individual filters counted in a Gamma Counter. The counts from the "Non-Specific" tubes are then averaged and subtracted from the average "Totals" to give the Specific Counts. […]

Broadly, the IC50 is the concentration needed to halve the response being measured. Take `CC(C)C[C@H](NC(=O)[C@H]1Cc2c([nH]c3ccccc23)CN1)C(=O)N[C@@H](CC(=O)O)C(N)=O` [Example 1, N-[(3R)-1,2,3,4-tetrahydro-9H-pyrido[3,4-b]indole-3-carboxyl]-L-leucyl-L-aspartic acid amide]: the IC50 came to 12 µM.

`CC(C)C[C@H](NC(=O)[C@@H]1Cc2c([nH]c3ccccc23)CN1)C(=O)N[C@@H](CC(=O)O)C(N)=O` [Example 2, N-[(3S)-1,2,3,4-tetrahydro-9H-pyrido[3,4-b]indole-3-carboxyl]-L-leucyl-L-aspartic acid amide]: the IC50 is 60 µM.

With `NC(=O)[C@H](CC(=O)O)NC(=O)[C@H]1Cc2c([nH]c3ccccc23)CN1` [Example 3, N-[(3R)-1,2,3,4-tetrahydro-9H-pyrido[3,4-b]-indole-3-carboxyl]-L-aspartic acid amide], the IC50 is more than 300 µM.

Consider `NC(=O)[C@H](CC(=O)O)NC(=O)[C@@H]1Cc2c([nH]c3ccccc23)CN1` [Example 4, N-[(3S)-1,2,3,4-tetrahydro-9H-pyrido[3,4-b]indole-3-carboxyl]-L-aspartic amide], for which the IC50 is more than 300 µM.

For the compound `O=C(NCC(c1ccccc1)c1ccccc1)[C@H]1Cc2c([nH]c3ccccc23)CN1` [Example 5, (3R)-3-(2,2'-diphenyl)ethylcarbamoyl-1,2,3,4-tetrahydro-9H-pyrido[3,4-b]indole], the IC50 was 59 µM.

As to `O=C(NC(c1ccccc1)c1ccccc1)[C@H]1Cc2c([nH]c3ccccc23)CN1` [Example 6, (3R)-3-diphenylmethylcarbamoyl-1,2,3,4-tetrahydro-9H-pyrido[3,4-b]indole], the IC50 was found to be 60 µM.

Take `NC(=O)[C@H](CC(=O)O)NC(=O)[C@H]1Cc2c([nH]c3ccccc23)CN1C(=O)c1ccccc1` [Example 8, N-[(3R)-2-benzoyl-1,2,3,4-tetrahydro-9H-pyrido[3,4-b]indole-3-carboxyl]-L-aspartic acid amide]: the IC50 was 78 µM.

On to `CC(C)C[C@H](NC(=O)[C@H]1Cc2c([nH]c3ccccc23)CN1C(=O)c1ccccc1)C(=O)N[C@@H](CC(=O)O)C(N)=O` [Example 9, N-[(3R)-2-benzoyl-1,2,3,4-tetrahydro-9H-pyrido[3,4-b]indole-3-carboxyl]-L-leucyl-L-aspartic acid amide], for which the IC50 was determined as 25 µM.

With `CC(C)C[C@H](NC(=O)[C@H]1Cc2c([nH]c3ccccc23)CN1C(=O)c1ccc2ccccc2c1)C(=O)N[C@@H](CC(=O)O)C(N)=O` [Example 10, N-[(3R)-2-(2-naphthoyl)-1,2,3,4-tetrahydro-9H-pyrido[3,4-b]indole-3-carboxyl]-L-leucyl-L-aspartic acid amide], the IC50 was 15 µM.

On to `Cc1cccc(NC(=O)N2Cc3[nH]c4ccccc4c3C[C@@H]2C(=O)N[C@@H](CC(C)C)C(=O)N[C@@H](CC(=O)O)C(N)=O)c1` [Example 11, N-[(3R)-2-(3-methylphenylcarbamoyl)-1,2,3,4-tetrahydro-9H-pyrido[3,4-b]indole-3-carboxyl]-L-leucyl-L-aspartic acid amide], for which the IC50 turned out to be 4 µM.

For `Cc1cccc(NC(=O)N2Cc3[nH]c4ccccc4c3C[C@H]2C(=O)N[C@@H](CC(C)C)C(=O)N[C@@H](CC(=O)O)C(N)=O)c1` [Example 12, N-[(3S)-2-(3-methylphenylcarbamoyl)-1,2,3,4-tetrahydro-9H-pyrido[3,4-b]indole-3-carboxyl]-L-leucyl-L-aspartic acid amide], the IC50 was 29 µM.

For the compound `CCCCCN(CCCCC)C(=O)[C@H]1Cc2c([nH]c3ccccc23)CN1C(=O)Nc1cccc(C)c1` [Example 13, (3R)-3-(N,N-dipentylcarbamoyl)-2-(3-methylphenylcarbamoyl)-1,2,3,4-tetrahydro-9H-pyrido[3,4-b]indole], the IC50 is more than 300 µM.

Take `CC(C)C[C@H](NC(=O)[C@H]1Cc2c([nH]c3ccccc23)CN1C(=O)Nc1ccccc1)C(=O)N[C@@H](CC(=O)O)C(N)=O` [Example 14, N-[(3R)-2-phenylcarbamoyl-1,2,3,4-tetrahydro-9H-pyrido[3,4-b]indole-3-carboxyl]-L-leucyl-L-aspartic acid amide]: the IC50 was 5.5 µM.

Take `CCOC(=O)c1ccc(NC(=O)[C@H]2Cc3c([nH]c4ccccc34)CN2C(=O)OCc2ccccc2)cc1` [Example 15, ethyl 4-N-[(3R)-2-carbobenzoxy-1,2,3,4-tetrahydro-9H-pyrido[3,4-b]indole-3-carboxyl]aminobenzoate]: the IC50 was 10 µM.

For the compound `CCOC(=O)c1cccc(NC(=O)[C@H]2Cc3c([nH]c4ccccc34)CN2C(=O)OCc2ccccc2)c1` [Example 16, ethyl 3-N-[(3R)-2-carbobenzoxy-1,2,3,4-tetrahydro-9H-pyrido[3,4-b]indole-3-carboxyl]aminobenzoate], the concentration for half-maximal inhibition (IC50) is more than 300 µM.

As for `CCOC(=O)c1ccccc1NC(=O)[C@H]1Cc2c([nH]c3ccccc23)CN1C(=O)OCc1ccccc1` [Example 17], the concentration for half-maximal inhibition (IC50) turned out to be 100 µM.

For `O=C(Nc1ccccc1C(=O)N1CCCC1)[C@H]1Cc2c([nH]c3ccccc23)CN1C(=O)OCc1ccccc1` [Example 18, pyrrolidine-2-N-[(3R)-2-carbobenzoxy-1,2,3,4-tetrahydro-9H-pyrido-[3,4-b]indole-3-carboxyl]aminobenzamide], the IC50 worked out at 55 µM.

Regarding `O=C(Nc1ccccc1C(=O)N1CCCC1)[C@@H]1Cc2c([nH]c3ccccc23)CN1C(=O)OCc1ccccc1` [Example 19, pyrrolidine-2-N-[(3S)-2-carbobenzoxy-1,2,3,4-tetrahydro-9H-pyrido[3,4-b]indole-3-carboxyl]aminobenzamide], the IC50 was determined as 8 µM.

On to `O=C(Nc1ccccc1C(=O)N1CCCC1)[C@H]1Cc2c([nH]c3ccccc23)CN1C(=O)c1ccc2ccccc2c1` [Example 20, pyrrolidine-2-N-[(3R)-2-(2-naphthoyl)-1,2,3,4-tetrahydro-9H-pyrido[3,4-b]indole-3-carboxyl]aminobenzamide], for which the IC50 was found to be 80 µM.

Turning to `CCCCN(CCCC)C(=O)c1ccccc1NC(=O)[C@H]1Cc2c([nH]c3ccccc23)CN1C(=O)OCc1ccccc1` [Example 22], the IC50 is more than 300 µM.

As for `CCOC(=O)c1ccccc1NC(=O)[C@@H]1Cc2c([nH]c3ccccc23)CN1C(=O)OCc1ccccc1` [Example 23, ethyl 2-N-[(3S)-2-carbobenzoxy-1,2,3,4-tetrahydro-9H-pyrido[3,4-b]indole-3-carboxyl]aminobenzoate], the IC50 is more than 300 µM.

For `CC[C@H](C)[C@H](NC(=O)[C@H]1Cc2c([nH]c3ccccc23)CN1C(=O)Nc1ccc(Cl)c(Cl)c1)C(=O)N[C@@H](CC(=O)O)C(N)=O` [Example 24, N-[(3R)-2-(3,4-dichlorophenylcarbamoyl)-1,2,3,4-tetrahydro-9H-pyrido[3,4-b]indol-3-yl]carbonyl-L-isoleucyl-L-aspartic acid amide], the IC50 was found to be 0.77 µM.
